Read-outs that look alike come from different tables or passages of the source.
Assays:
[1] = test system: P. falciparum (3D7 strain); experiment: In vitro antiplasmodial activity, P. falciparum blood-stage parasites, SYBR Green I; format: cell-based, Plasmodium falciparum; conditions: 3D7 strain, 72 h, SYBR Green I, read-out: IC50^Pf
Experimental: The P. falciparum strains were cultivated in human blood cells (hRBC) O^+, while P. knowlesi was cultivated in rhesus red blood cells (rRBC) as described. P. falciparum complete RPMI (consisting of RPMI-1640, supplemented with 0.2% NaHCO3, 25 mM HEPES (pH 7.4), 11 mM D-glucose, 10 mg/L hypoxanthine, 25 mg/L gentamicin, and 0.5% (m/v) AlbuMAX II). The parasitemias of these cultures were maintained below 10% with 2.5% hematocrit. P. knowlesi complete RPMI (consisting of RPMI-1640 supplemented with 25 mM HEPES, […] hypoxanthine, 0.26% NaHCO3, 10 mg/L gentamicin, and 1% Albumax II). This culture was maintained with RBCs up to 5% hematocrit. The culture medium was changed daily, and all cultures were maintained under a 90% N2/5% CO2/5% O2 gas mixture at 37 °C. All compounds were purchased from Sigma-Aldrich (Cotia, Brazil).
The antiplasmodial activity of brussonol and derivatives was evaluated against P. falciparum blood parasites 3D7(chloroquine-sensitive). The parasites were synchronized through sterile 5% (m/v) D-sorbitol treatment over 10 min at 37 °C for the enrichment of ring stages. Centrifugation 600× g over 5 min was used to pellet the cultures. The parasitemia was determined by microscope analysis of thin blood smears stained with Giemsa 10% (v/v) after fixation with methanol. The initial parasitemia was calculated for 1000 red blood cells (RBCs), and cultures were diluted to 0.5% parasitemia and 2% hematocrit by the addition of the appropriate volumes of blood and medium. A total of 180 µL aliquots of parasites were distributed into 96-well plates followed by the addition of 20 µL of previously prepared aliquots of ten-fold concentrated compounds, the range of concentrations tested was 10–1.53 µM. Negative and positive control wells, which correspond to non-parasitized erythrocytes and parasite cultures in the absence of compounds, were set in parallel. The DMSO concentration was maintained below 0.05% (v/v) for all compounds except for brussonol, which was 0.5%. The plates were incubated for 72 h at 37 °C in a humidified incubator with a gas mixture of 90% N2, 5% O2, and 5% CO2. Each test was performed in duplicates, and the results were compared with the control cultures. Once completed incubation, the culture medium was removed, and the cells were resuspended in 100 µL PBS (116 mM NaCl, 10 mM NaH2PO4, 3 mM KH2PO4) and lysed with 100 µL lysis buffer (20 mM Tris base, 5 mM EDTA, 0.0008% (v/v) Triton X-100, 0.008% (m/v) saponin, pH 8.0) containing 0.002% (v/v) SYBR Green I. Plates were incubated for 30 min at room temperature, and a SpectraMAX Gemini EM plate reader (Molecular Devices Corp., Sunnyvale, CA) was used to determine the fluorescence corresponding to parasitic density (excitation at 485 nm, emission at 535 nm). The half-maximal inhibitory concentration (IC50^Pf) was determined by non-linear regression analysis of the resulting concentration–response curve using the software GraphPad Prism version 8.0.1 for Windows, GraphPad Software, San Diego, California USA, www.graphpad.com, accessed on 3 March 2022”.

HepG2 cells = experiment: Cytotoxic test on immortalized cells, MTT; format: cell-based, human; conditions: HepG2, 72 h
Experimental: The cytotoxic effects of brussonol and derivatives were evaluated against the human hepatocellular carcinoma cell line (HepG2). The cells were cultivated in an RPMI medium supplemented with 10% (v/v) fetal bovine serum and 25 µg/mL gentamicin. Conditions for the cultivation of these cells were 37 °C and 5% CO2, and every 2 days the supplemented medium was changed.
For experimental procedures, the cells were trypsinized and transferred to a 96-well plate at 30,000 cells per well (180 µL). The plate was incubated at 37 °C and 5% CO2 to allow cell adhesion. Next, 20 µL of serial dilutions of the compounds tested were added to the plate, with a range of concentrations tested from 400–6.25 µM. Cells without any compounds were used as a positive control for growing and the wells containing only medium were used as negative controls. The plate was incubated for 72 h at 37 °C and 5% CO2. After incubation, a microscope was used to determine the highest compound concentration to be used in the experiments (highest concentration without precipitation). A colorimetric assay was used to evaluate cytotoxicity. This assay is based on the metabolic cell activity in the presence of 3-(4,5-dimethylthiazol-2-yl)-2,5-diphenyltetrazolium bromide (MTT). Shortly after incubation, 20 µL of a solution of MTT at 5 mg/mL (solubilized in phosphate buffer) is added to each well. The plate is incubated for 3 to 4 h at 37 °C to allow MTT cleavage in living cells. Then, the supernatant is removed, and 100 µL of dimethylsulfoxide (DMSO) is added to solubilize the purple formazan crystals. The absorbance, which is proportional to the number of viable cells, was determined using a SpectraMAX Plus 384 plate reader (Molecular Devices Corp., Sunnyvale, CA) (λ = 570 nm). All compounds described here were purchased from Sigma-Aldrich (verificar local).
After the IC50 against the parasite and the human cell line is determined, it is possible to calculate the SI. It is calculated as the formula below:SI = IC50^HepG2/IC50^Pf.
For our reference, compounds with SI values higher than 10 are considered well tolerated by the cellular model used, and they are considered for further evaluation.

hemozoin formation = experiment: Hemozoin formation inhibition assay; format: biochemical; conditions: hemin 25 µM, pH 4.8, 4 h, one experiment in triplicate
Experimental: 2. Hemozoin Formation Inhibition Assay
The hemozoin formation inhibition assay was performed as described previously.12 Briefly, serial 1:3 dilutions, in a 96‐well plate, wit h brussonol were made in a final volume of 20 μL in a concentration 10 times higher than the final concentration of the assay. Secondly, 90 μ L of freshly prepared hemin (at a final concentration of 25 μM) solution in 1M NaOAc/HOAc buffer pH 4.8 were added followed by addition of 90 μ L of 5.4 mg/L Tween 20 solution freshly prepared. The plates were let to stand for 4 hours at 37 °C followed by resuspension with multichannel pippete and read at 415 and 630 nm using a SpectraMAX Plus 384 plate reader (Molecular Devices Corp., Sunnyvale, CA).
Due to the absence of enough compound, this experiment wa s performed only once, but with internal triplicate. Chloroquine (CQ) and pyrimethamine (PYR) were used as positive and negative control of inhibition, respectively.
Inhibition (%) = 100 – 100 x [(Aco ntro l – Asample) / (Acontrol - Amin)] Acontrol is the difference of the absorbance at 415 and 630 nm of the negative control (Hemin +, Tween 20 ‐, Compound ‐); Amin is the difference of the absorbance at 415 and 630 nm of the positive control (Hemin +, Tween 20 +, Compound ‐ ); Asample is the difference of the absorbance at 415 and 630 nm of the sample. The hemozoin formation inhibition assay was performed to evaluate if brussonol act inhibiting hemozoin formation in P. falciparum. CQ, which is a well‐known inhibitor of hemozoin […]
Figure S1. Hemozoin formation inhibition assay. Different concentrations of CQ (black triangles), PYR (red squares) and brussonol (blue circles) were incubated with heme in triplicates. Th e absorbance was recorded at 415/630 nm to determine the hemozoin formation inhibition. […]

P. falciparum 3D7 strain = experiment: Chemical rescue assay with isopentenyl pyrophosphate (IPP); format: cell-based, Plasmodium falciparum; conditions: Plasmodium falciparum, 3D7 strain, 72 h
Text: To evaluate whether brussonol interfered with the biosynthesis of […] in malaria parasites, we conducted a chemical rescue assay. The assay identifies compounds that interfere with the metabolism of isoprenoids by “rescuing” their growth inhibition through the supplementation of isopentenyl pyrophosphate (IPP), a key precursor of isoprenoid biosynthesis. […] Thus, the chemical rescue assay compares the IC50 values of the tested compound in the presence and absence of IPP. We used fosmidomycin (FOS) as a positive control for growth inhibition rescuing upon supplementation of IPP (Figure 7b). In this assay, compounds that interfere in the metabolism of isoprenoids show a significant increment in the IC50 value in the presence of IPP (Figure 7b).
The chemical rescue assay was carried out as described by Yeh and DeRisi (2011). This assay consists in verifying the IC50 value of the tested compounds with and without the isopentenyl pyrophosphate (IPP), purchased from Isoprenoids, LC (Florida, USA). Briefly, 3D7 strain ring stages were cultured in 96-well plates, with 0.5% parasitemia and 2% hematocrit. Non-parasitized erythrocytes and parasitized erythrocytes without drugs were used as growth controls, and fosmidomycin (FOS) was used as a positive control for chemical rescue. Serial dilutions of brussonol and FOS were prepared in duplicates. In the same 96-well plate, brussonol and FOS had their antiplasmodial activity evaluated with and without supplementation of 200 µM IPP. Plates were incubated for 72 h and analyzed by the SYBR Green I assay.

[2] = test system: cytosolic Ca^2+ in P. falciparum; experiment: [Ca2+]cyt measurements in isolated parasites loaded with Fluo-4AM; format: cell-based, Plasmodium falciparum
Experimental: One of the compounds identified in the structural similarity search was the cyclopiazonic acid (CPA) (Figure 8a). […] Because of that, brussonol activity on the modulation of the SERCA pump was investigated. To assess the effect of brussonol on calcium mobilization in P. falciparum intraerythrocytic stages, isolated parasites loaded with Fluo-4-AM were exposed to 10 μM brussonol in MOPS Ca^2+ buffer. […] To verify if the brussonol-elicited [Ca^2+]cyt increment originated from the endoplasmic reticulum (ER), targeting the PfSERCA pump, CPA was added before the addition of brussonol. […] In the brussonol-pretreated parasites, the addition of CPA still increased the cytosolic Ca^2 + level (30 ± 5 nM) (Figure 8d).
Isolated parasites were incubated for 1 h at 37 °C with 5 μM of Fluo-4AM in 1 mL MOPS buffer (116 mM NaCl, 5.4 mM KCl, 0.8 mM MgSO4, 5.5 mM D-glucose, 50 mM MOPS, and 2 mM CaCl2, pH 7.2), with 1 mM probenecid to minimize compartmentalization and extrusion of probe. The parasites were washed three times with the same buffer and transferred to a quartz cuvette. Intracellular calcium was measured continuously using a Hitachi F-7000 spectrofluorimeter (Tokyo, Japan) by measurement of the fluorescence (λex = 488 nm and λem = 530 nm) at 37 °C, under agitation. When indicated, 10 µM of cyclopiazonic acid (CPA) or 10 µM of brussonol were added to the cuvette. Maximal fluorescence (Fmax) was determined after the lysis of with digitonin 0.15% (m/v), and minimal fluorescence (Fmin) was determined by adding 25 mM EGTA in 3 M Tris, pH 8.8, until no further decrease in fluorescence was observed. The cytosolic calcium concentration ([Ca^2+]cyt) was calculated from the fluorescence data (F) using a Kd value of 345 nM using the formula:Ca^2 +cyt = 345 × [(F − Fmin)/(Fmax − F)]
The results (n = 2) were analyzed through One-Way ANOVA with Tukey post-test. All compounds described here were purchased from Sigma-Aldrich (verificar local).

[3] = Plasmodium falciparum, 3D7, 72 h

IC50 [1, 3]	Compound	also measured
> 10 µM	Oc1ccc(O)c2c1C[C@@]13CCCC[C@@H]1C[C@@H]2O3 (racemic) [Compound 5]	
~5 µM	COc1c2c(c(OC)c(C(C)C)c1OC)[C@@H]1C[C@H]3C(C)(C)CCC[C@@]3(C2)O1 (racemic) [Compound 8]	IC50 (HepG2 cells): 170 ± 38 µM; IC50 (HepG2 cells; Homo sapiens): > 170 µM
> 10 µM	COc1ccc2c(c1OC)C[C@@]13CCCC(C)(C)[C@@H]1C[C@@H]2O3 (racemic) [Compound 9]	
~5 µM	COc1c2c(c(Br)c(C(C)C)c1OC)[C@@H]1C[C@H]3C(C)(C)CCC[C@@]3(C2)O1 (racemic) [Compound 10]	IC50 [1]: 5.6 ± 0.1 µM
5.8 ± 0.2 µM	COc1c2c(c(-c3ccccc3)c(C(C)C)c1OC)[C@@H]1C[C@H]3C(C)(C)CCC[C@@]3(C2)O1 (racemic) [Compound 11]	IC50 (HepG2 cells; Homo sapiens): > 12 µM
~5 µM	COc1c(C(C)C)cc2c(c1OC)C[C@@]13CCCC[C@@H]1C[C@@H]2O3 (racemic) [Compound 12]	IC50 [1]: 5.6 ± 0.8 µM
> 10 µM	CC(C)c1cc2c(c(O)c1O)C[C@@]13CCCC[C@@H]1C[C@@H]2O3 (racemic) [Compound 13]	
5.89 ± 0.02 µM	COc1c2c(c(-c3ccccc3)c(C(C)C)c1OC)[C@@H]1C[C@H]3CCCC[C@@]3(C2)O1 (racemic) [Compound 15]	IC50 (HepG2 cells; Homo sapiens): > 50 µM
	CCN(CC)CCCC(C)Nc1ccnc2cc(Cl)ccc12 (stereo not drawn) [Chloroquine, reference compound]	IC50 (hemozoin formation): 80 µM
> 10 µM	COc1ccc2c(c1OC)CC13CCCCC1CC2O3 (stereo not drawn) [Compound 2]	
> 10 µM	COc1ccc(OC)c2c1CC13CCCCC1CC2O3 (stereo not drawn) [Compound 3]	
> 10 µM	Oc1ccc2c(c1O)CC13CCCCC1CC2O3 (stereo not drawn) [Compound 4]	
> 10 µM	O=C1C=CC(=O)C2=C1CC13CCCCC1CC2O3 (stereo not drawn) [Compound 6]	
5.2 ± 0.4 µM	COc1c(C(C)C)cc2c(c1OC)CC13CCCC(C)(C)C1CC2O3 (stereo not drawn) [Compound 7]	IC50 (HepG2 cells; Homo sapiens): > 192 µM
5.65 ± 0.05 µM	COc1c2c(c(Br)c(C(C)C)c1OC)C1CC3CCCCC3(C2)O1 (stereo not drawn) [Compound 14]	IC50 (HepG2 cells; Homo sapiens): > 25 µM
	O=CN(O)CCCP(=O)(O)O [fosmidomycin, reference compound]	IC50 (P. falciparum 3D7 strain; with 200 µM IPP, read-out: IC50 in the presence of IPP): > 20 µM; IC50 (P. falciparum 3D7 strain; without IPP, read-out: IC50 in the absence of IPP): 1.2 ± 0.2 µM
	cyclopiazonic acid [reference compound]	[Ca^2+]cyt rise in brussonol-pretreated parasites ([2]; 10 µM CPA added after 10 µM brussonol): 30 ± 5 nM; [Ca^2+]cyt rise ([2]; 10 µM compound alone, MOPS Ca^2+ buffer, relative to basal level): 23 ± 2 nM

From PMC9321043, “Synthesis, Structure–Activity Relationships, and Parasitological Profiling of Brussonol Derivatives as New Plasmodium falciparum Inhibitors” (Pharmaceuticals, 2022)
